Earlier results, collected in patent US20070225258A1, “COMPOSITIONS COMPRISING BISPHOSPHONATE AND AN ANTIFOLATE” (PROPRIUS PHARMACEUTICALS, INC., priority 2006, published 2007).

Tested on: patients with RA

CN(Cc1cnc2nc(N)nc(N)c2n1)c1ccc(C(=O)N[C@@H](CCC(=O)O)C(=O)O)cc1 [methotrexate]
Proportion of RA patients in whom treatment is effective: effective in only one in three patients
